The values that follow come from patent US7541032B2, “Antigen uptake receptor for Candida albicans on dendritic cells” (priority 2002, dated 2009).

For experiment [1], the target named is T1, DC-SIGN (Homo sapiens, UniProt Q9NNX6).
T1 construct: expressed in transfected cells
T1 sequence (Q9NNX6 1-404): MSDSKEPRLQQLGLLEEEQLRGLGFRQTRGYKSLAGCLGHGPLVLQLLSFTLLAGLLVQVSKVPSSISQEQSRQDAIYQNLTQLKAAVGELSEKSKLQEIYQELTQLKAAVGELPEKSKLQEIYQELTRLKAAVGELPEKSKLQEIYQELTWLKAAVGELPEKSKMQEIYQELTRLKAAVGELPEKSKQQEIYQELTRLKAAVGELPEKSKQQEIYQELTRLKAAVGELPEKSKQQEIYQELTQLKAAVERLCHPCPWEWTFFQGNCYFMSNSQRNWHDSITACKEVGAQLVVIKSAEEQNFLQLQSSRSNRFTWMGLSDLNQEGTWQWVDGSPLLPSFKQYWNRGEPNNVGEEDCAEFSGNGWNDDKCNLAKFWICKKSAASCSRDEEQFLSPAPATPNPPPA
Put plainly: Binding of FITC-labeled C. albicans to K562 transfectants expressing DC-SIGN (K-SIGN), flow cytometry. To be noted: for Inhibition of binding of C. albicans to K562 cells transfected with wild-type DC-SIGN (FIG. 1F): K562 wild-type DC-SIGN transfectants. Type of experiment: cell-based. The protocol: (§1) Immature dendritic cells (imDC) were generated from human peripheral blood monocytes as described previously (Vissers et al., 2001). Briefly, monocytes were isolated by adherence to plastic and cultured in the presence of IL-4 (500 U/mL) and GM-CSF (800 U/mL) for 6-7 days. K562 transfectants either expressing DC-SIGN or ALCAM were generated by transfection of K562 cells with 10 μg of plasmid by electroporation as described previously (Geijtenbeek et al., 2000b; Nelissen et al., 2000). Positive cells were sorted several times to obtain stable transfectants with similar expression levels of DC-SIGN.
(§2) Labeling of Candida cells was performed as follows: viable or heat killed (60 minutes at 56° C. or 30 minutes at 100° C.) yeast cells were resuspended to 2×10^8/mL in 0.1 mg/mL FITC in 0.05 M carbonate-bicarbonate buffer (pH 9.5). After incubation for 15 minutes at room temperature in the dark, FITC-labeled Candida cells were washed twice in PBS containing 1% BSA (PBA buffer) and analyzed by flow cytometry.
(§3) DC or K562 transfected cells were stained with anti-CD45-APC prior to exposure to FITC labeled live or heat inactivated Candida. DC or K562 cells expressing DC-SIGN or ALCAM (control) were or were not preincubated for 10 minutes at room temperature with mannan (300 μg/mL), mannose (100 mM), facose (100 mM), EGTA (5 mM), or a mixture of AZN-D1 and AZN-D3 (20 μg/mL), in 20 mM Tris pH 8.0, containing 150 mM NaCl, 1 mM CaCl2, 2 mM MgCl2, and 1% BSA (TSA buffer) or, when EGTA was used, in PBS. Subsequently, FITC labeled Candida were resuspended to the appropriate concentrations either in TSA or PBS and added in various cell/C. albicans ratios. After incubation, cell-Candida conjugates were analyzed by flow cytometry, and the relative difference in mean fluorescence intensity of the double labeled events compared with that of control cells was calculated. Cells were labeled with anti-CD45APC to discriminate cells binding FITC-labeled yeast particles from yeast aggregates.
The erythroleukemic cell line K562 transfectants stably expressing DC-SIGN (K-SIGN) (Geijtenbeek et al., 2000a) were used to investigate the potential of C. albicans to bind DC-SIGN in the absence of any other known C. albicans, receptors. Binding to ICAM-3 fluorescent beads was used as a positive control for DC-SIGN function. […] The monoclonal antibodies AZN-D1 and AZN-L50 were used to detect DC-SIGN and ALCAM, respectively. The K562 transfectants stably express DC-SIGN and ALCAM, (FIGS. 1A-1 through 1A-3) with expression levels similar to that observed previously (Geijtenbeek et al., 2000a; Nelissen et al., 2000).
Transfectant cells were labeled with CD45APC to discriminate cells binding FITC labeled yeast from yeast aggregates. […]

Experiment [2] deals with immature dendritic cells (imDC). Put plainly: Binding of C. albicans to immature monocyte-derived dendritic cells in the presence of blocking agents, flow cytometry. Type of experiment: cell-based, human. The settings on record: for Inhibition of binding of Candida to imDC at ratios 1:2, 1:5 and 1:10 (FIG. 3D): imDC:C. albicans 1:2, 1:5, 1:10; for Inhibition of imDC/Candida binding (FIG. 5): panel of possible inhibitors, buffer TSA as control. The protocol: as §1, §2, §3
In an attempt to establish the contribution of both the mannose receptor and DC-SIGN, immature DC were incubated with specific inhibitors before interacting with C. albicans. Immature monocyte derived dendritic cells (50×10^3), which were CD45APC labeled, were incubated with heat-inactivated Candida (500×10^3) in the absence or presence of AZN-D1 and AZN-D3, anti-DC-SIGN mAb (20 μg/mL each), mannose (100 mM), and EGTA (5 mM).
(A flow cytometer gives signals particle by particle.)

Experiment [3] addresses T1, DC-SIGN. The experiment is described as follows: Binding of conidiae and hyphae of other Candida strains/species and Aspergillus fumigatus to K-SIGN cells. The experiment is classed as cell-based. The protocol: as §3
Further studies were performed as above but using other strains or species of yeast and also comparing binding of the conidiae versus binding of the hyphal form of the organism. […] These are clinical strains isolated from patients. It is seen that the conidiae or single-celled form of the yeast bind to DC-SIGN better than do the hyphae. […]

The subject of the next experiment is immature DC. Put plainly: Phagocytosis of FITC-labeled Candida by immature DC, confocal microscopy. The experiment is classed as cell-based, human. To be noted: 60 minutes at 37° C. As to the method:
Immature DC (5×10^5) were incubated with unopsonized live FITC-labeled Candida cells (2.5×10^6) in a total volume of 500 μL at 37° C. in a water bath with orbital shaking at 150 rpm for various periods of time. At the end of the incubation period, the DC binding Candida are separated from unbound Candida by a Ficoll gradient.
The samples were then adhered on poly-L-lysine coated glass coverslips, fixed in 1% paraformaldehyde in PBS for 15 minutes at room temperature, and permeabilized in cold methanol for 5 minutes on ice. After a blocking step in PBS/3% BSA for 60 minutes at room temperature, cells were labeled with mAb (10 μg/mL in PBS/3% BSA) for 60 minutes at room temperature and subsequently incubated with Cy5-conjugated Goat-anti-Mouse F(ab′)2 fragments for 30 minutes at room temperature. Finally, the anti-bleach reagent Mowiol was added, and samples were analyzed using a MRC1024 confocal microscope (Bio-Rad).
It was recently shown that DC-SIGN is an antigen uptake receptor, facilitating phagocytosis within minutes (Engering et al., 2002). In order to determine whether DC-SIGN contributes also to the internalization of C. albicans by immature DC, experiments were performed allowing DC to interact with FITC-labeled Candida for 60 minutes at 37° C. to allow phagocytosis. […]

Experiment [4] addresses T2, Activated Leukocyte Cell Adhesion Molecule ALCAM (UniProt Q13740 28-583, limits assumed).
T2 construct: whole, on cells; also called K-ALCAM (K562 cells transfected with ALCAM)
T2 sequence (looked up): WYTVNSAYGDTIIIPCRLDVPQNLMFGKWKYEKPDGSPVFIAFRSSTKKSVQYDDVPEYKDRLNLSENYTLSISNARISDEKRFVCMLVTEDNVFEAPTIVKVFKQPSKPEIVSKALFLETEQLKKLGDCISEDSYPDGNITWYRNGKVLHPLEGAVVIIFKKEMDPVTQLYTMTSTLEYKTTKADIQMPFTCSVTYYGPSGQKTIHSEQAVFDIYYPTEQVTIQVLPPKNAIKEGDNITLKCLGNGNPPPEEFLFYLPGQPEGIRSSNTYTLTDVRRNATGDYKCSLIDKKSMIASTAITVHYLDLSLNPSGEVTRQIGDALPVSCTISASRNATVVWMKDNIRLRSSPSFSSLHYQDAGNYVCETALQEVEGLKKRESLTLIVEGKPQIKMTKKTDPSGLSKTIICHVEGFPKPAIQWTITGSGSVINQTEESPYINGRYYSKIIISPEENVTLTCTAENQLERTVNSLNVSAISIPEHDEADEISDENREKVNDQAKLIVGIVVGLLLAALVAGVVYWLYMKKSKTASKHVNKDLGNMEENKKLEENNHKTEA
The experiment is described as follows: fluorescent beads adhesion assay, flow cytometry, K562 transfectants.
Protocol: In inhibition studies, the bead adhesion assay was performed in the presence of 0.3 mg/mL mannan, 5 mM EGTA, or 20 μg/mL antibodies against DC-SIGN or ALCAM.
The erythroleukemic cell line K562 transfectants stably expressing DC-SIGN (K-SIGN) (Geijtenbeek et al., 2000a) were used to investigate the potential of *C. albicans* to bind DC-SIGN in the absence of any other known *C. albicans*, receptors.

`C[C@H](O)[C@@H](O)[C@@H](O)[C@H](O)C=O` [fucose, L-fucose]: at DC-SIGN [1], the “Inhibition of binding of C. albicans to K562 cells transfected with wild-type DC-SIGN (FIG. 1F)” value was “some inhibition”. Further, in experiment [2], the “Inhibition of binding of Candida to imDC at ratios 1:2, 1:5 and 1:10 (FIG. 3D)” value is given as “greater inhibitory effects”; the “Inhibition of imDC/Candida binding (FIG. 5)” value is recorded as “inhibited binding to a large degree”.

Take laminarin: in experiment [2], the “Blocking of C. albicans binding on immature monocyte derived DC (β2-integrin / Dectin-1 interference)” value is on record as “did not show any block” and the “Inhibition of imDC/Candida binding (FIG. 5)” value is on record as “only minor effects”.

As to `O=C(O)CN(CCOCCOCCN(CC(=O)O)CC(=O)O)CC(=O)O` [EGTA], at DC-SIGN [3] (C. albicans strains V13-12, V15-31, V18-17, C. dubliniensis strains V18-13, 4247, 3588), the “Inhibition of binding of conidiae and hyphae to K-SIGN cells (FIG. 6)” value was “inhibited”. Moreover, the “Blocking of phagocytosis of Candida by immature DC” value with immature DC is listed as “almost completely blocked phagocytosis”. In addition, the “Inhibition of binding of C. albicans by K-SIGN (FIG. 1C)” value at DC-SIGN [1] (AZN-D1 20 μg/mL, EGTA 5 mM) is reported as “abrogates binding”. Besides, the “Inhibition of binding of C. albicans to K562 cells transfected with wild-type DC-SIGN (FIG. 1F)” value at DC-SIGN [1] is “prevented the binding”. For the same molecule, the “Inhibition of binding of live and heat-killed (56° C. or 100° C.) yeast forms of C. albicans by DC-SIGN (FIG. 2)” value on DC-SIGN [1] (K-SIGN, live and heat-inactivated yeast) is given as “inhibited”. Moreover, the “Blocking of binding of C. albicans to immature DC, in words (FIG. 3B)” value in experiment [2] (EGTA 5 mM, heat-inactivated Candida) is reported as “most effective blocking agent”. In experiment [2], the “Inhibition of binding of Candida to imDC at ratios 1:2, 1:5 and 1:10 (FIG. 3D)” value is reported as “largely eliminated binding”; the “Inhibition of imDC/Candida binding (FIG. 5)” value was “inhibited binding to a large degree”.

Regarding Mannan, in experiment [2], the “Inhibition of binding of Candida to imDC at ratios 1:2, 1:5 and 1:10 (FIG. 3D)” value is reported as “did not block the binding”; the “Inhibition of imDC/Candida binding (FIG. 5)” value is reported as “only minor effects”.

On to β-1,2-oligomannoside, for which the “Inhibition of imDC/Candida binding (FIG. 5)” value in experiment [2] is reported as “greatly inhibited binding”.

As for `O=C(O)CN(CCN(CC(=O)O)CC(=O)O)CC(=O)O` [EDTA], the “Inhibition of binding of various Candida species and Aspergillus fumigatus to K-SIGN cells (FIGS. 8A-F)” value at DC-SIGN [3] (conidiae and hyphae, all cases except possibly C. tropicalis and C. parapsilosis (very low binding)) is on record as “inhibited”.

B1: ICAM-3-Fc (Fc fusion, UniProt P32942 30-485, looked up)
chain: QEFLLRVEPQNPVLSAGGSLFVNCSTDCPSSEKIALETSLSKELVASGMGWAAFNLSNVTGNSRILCSVYCNGSQITGSSNITVYRLPERVELAPLPPWQPVGQNFTLRCQVEDGSPRTSLTVVLLRWEEELSRQPAVEEPAEVTATVLASRDDHGAPFSCRTELDMQPQGLGLFVNTSAPRQLRTFVLPVTPPRLVAPRFLEVETSWPVDCTLDGLFPASEAQVYLALGDQMLNATVMNHGDTLTATATATARADQEGAREIVCNVTLGGERREARENLTVFSFLGPIVNLSEPTAHEGSTVTVSCMAGARVQVTLDGVPAAAPGQPAQLQLNATESDDGRSFFCSATLEVDGEFLHRNSSVQLRVLYGPKIDRATCPQHLKWKDKTRHVLQCQARGNPYPELRCLKEGSSREVPVGIPFFVNVTHNGTYQCQASSSRGKYTLVVVMDIEAGSSH
notes: Coated on carboxylate-modified TransFluorSpheres; also called ICAM-3-Fc coated beads; ICAM-3 fluorescent beads; not shown: Fc part
For B1, the binding result in experiment [4] is listed as “no binding”.
